pIC50: −log10 of the molar value.
What follows are compounds tested against T1, human neutrophil elastase (HNE) (Homo sapiens, UniProt P08246) (assay: HNE Enzyme Assay (fluorogenic peptide substrate MeOSuc-Ala-Ala-Pro-Val-AMC)). Conditions: human leukocyte elastase 0.00072 U/mL, substrate 100 μM, 25° C., 30 minutes, at least two separate experiments; read-out: HNE inhibition (IC50 values).
T1 construct: purchased Sigma E8140
T1 sequence (P08246 30-247 limits assumed): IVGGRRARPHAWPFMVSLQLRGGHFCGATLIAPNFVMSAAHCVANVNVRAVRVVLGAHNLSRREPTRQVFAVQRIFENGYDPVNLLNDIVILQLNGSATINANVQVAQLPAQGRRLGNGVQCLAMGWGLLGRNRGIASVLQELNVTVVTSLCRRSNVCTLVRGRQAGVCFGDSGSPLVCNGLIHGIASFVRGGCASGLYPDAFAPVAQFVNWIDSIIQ
Format: biochemical
Method: Compounds of this invention were tested for potency in a human neutrophil elastase (HNE) enzyme activity assay.
Assays were performed in 96-well plates in a total assay volume of 100 μL. The final concentration of elastase enzyme (human leukocyte elastase, Sigma E8140) was 0.00072 U/mL. The peptide substrate (MeOSuc-Ala-Ala-Pro-Val-AMC, Calbiochem #324740) was used at a final concentration of 100 μM. The final concentration of DMSO was 1% in the assay buffer (0.05M Tris.HCl, 0.1M NaCl, 0.1M CaCl2, 0.0005% Brij-35, pH 7.5). The enzymatic reaction was started by addition of the enzyme and incubated at 25° C. for 30 minutes. After incubation, the reaction was stopped by addition of soybean trypsin inhibitor (Sigma T9003) at a final concentration of 50 μg/well. Fluorescence was measured using a Molecular Devices fluorescence plate reader using 380 nm excitation and 460 nm emission wavelengths.
A concentration response to each compound was performed and the effect of compound in each experiment was expressed as a percentage inhibition of the control enzyme fluorescence. Dose response curves were plotted and compound potency (IC50) was determined. Compounds were tested in at least two separate experiments.

SMILES | pIC50
CC[N+](C)(C)C[C@H]1CC[C@H](NC(=O)n2c(-c3ccnn3-c3ccc(C#N)cc3)c(C)n(-c3cccc(C(F)(F)F)c3)c2=O)CC1 [Example 31, (Trans-4-{[5-[2-(4-cyano-phenyl)-2H-pyrazol-3-yl]-4-methyl-2-oxo-3-(3-trifluoromethyl-phenyl)-2,3-dihydro-imidazole-1-carbonyl]-amino}-cyclohexylmethyl)-ethyl-dimethyl-ammonium benzene sulfonate] | > 9.00
Cc1c(-c2ccnn2-c2ccc(C#N)cc2)n(C(=O)N[C@H](C)c2cc[n+](C)cc2)c(=O)n1-c1cccc(C(F)(F)F)c1 [Example 52, 4-((R)-1-{[5-[2-(4-Cyano-phenyl)-2H-pyrazol-3-yl]-4-methyl-2-oxo-3-(3-trifluoromethyl-phenyl)-2,3-dihydro-imidazole-1-carbonyl]-amino}-ethyl)-1-methyl-pyridinium benzene sulfonate] | 8.00 to 9.00
Cc1c(-c2ccnn2-c2ccc(C#N)cc2)n(C(=O)N[C@H]2CC[C@H](C(=O)N3CCC([N+](C)(C)C)CC3)CC2)c(=O)n1-c1cccc(C(F)(F)F)c1 [Example 88, [1-(Trans-4-{[5-[2-(4-cyano-phenyl)-2H-pyrazol-3-yl]-4-methyl-2-oxo-3-(3-trifiuoromethyl-phenyl)-2,3-dihydro-imidazole-1-carbonyl]-amino}-cyclohexanecarbonyl)-piperidin-4-yl]-trimethyl-ammonium benzene sulfonate] | > 9.00
CC[C@H](NC(=O)n1c(-c2ccnn2-c2ccc(C#N)cc2)c(C)n(-c2cccc(C(F)(F)F)c2)c1=O)c1ncc(CN(C)C)o1 [Example 22, 5-[2-(4-Cyano-phenyl)-2H-pyrazol-3-yl]-4-methyl-2-oxo-3-(3-trifluoromethyl-phenyl)-2,3-dihydro-imidazole-1-carboxylic acid [(S)-1-(5-dimethylaminomethyl-oxazol-2-yl)-propyl]-amide] | > 9.00
Cc1c(-c2ccnn2-c2ccc(C#N)cc2)n(C(=O)N[C@H]2CC[C@@H](C[N+](C)(C)Cc3ccccc3)CC2)c(=O)n1-c1cccc(C(F)(F)F)c1 [Example 54, Benzyl-(cis-4-{[5-[2-(4-cyano-phenyl)-2H-pyrazol-3-yl]-4-methyl-2-oxo-3-(3-trifiuoromethyl-phenyl)-2,3-dihydro-imidazole-1-carbonyl]-amino}-cyclohexylmethyl)-dimethyl-ammonium bromide] | 8.00 to 9.00
Cc1c(-c2ccnn2-c2ccc(C#N)cc2)n(C(=O)N[C@@H](C)C(=O)N2CCC([N+](C)(C)Cc3ccccc3)CC2)c(=O)n1-c1cccc(C(F)(F)F)c1 [Example 70, Benzyl-[1-((S)-2-{[5-[2-(4-cyano-phenyl)-2H-pyrazol-3-yl]-4-methyl-2-oxo-3-(3-trifluoromethyl-phenyl)-2,3-dihydro-imidazole-1-carbonyl]-amino}-propionyl)-piperidin-4-yl]-dimethyl-ammonium bromide] | > 9.00
Cc1c(-c2ccnn2-c2ccc(C#N)cc2)n(C(=O)N[C@H](c2ncc(C[N+](C)(C)C)o2)C(C)C)c(=O)n1-c1cccc(C(F)(F)F)c1 [Example 73, [2-((S)-1-{[5-[2-(4-Cyano-phenyl)-2H-pyrazol-3-yl]-4-methyl-2-oxo-3-(3-trifluoromethyl-phenyl)-2,3-dihydro-imidazole-1-carbonyl]-amino}-2-methyl-propyl)-oxazol-5-ylmethyl]-trimethyl-ammonium benzene sulfonate] | > 9.00
Cc1cc(C[N+](C)(C)[C@H]2CC[C@H](NC(=O)n3c(-c4ccnn4-c4ccc(C#N)cc4)c(C)n(-c4cccc(C(F)(F)F)c4)c3=O)CC2)no1 [Example 75, (4-{[5-[2-(4-Cyano-phenyl)-2H-pyrazol-3-yl]-4-methyl-2-oxo-3-(3-trifluoromethyl-phenyl)-2,3-dihydro-imidazole-1-carbonyl]-amino}-cyclohexyl)-dimethyl-(5-methyl-isoxazol-3-ylmethyl)-ammonium chloride] | > 9.00

The next lines start with the values.

pIC50 | SMILES
> 9.00 | Cc1c(-c2ccnn2-c2ccc(C#N)cc2)n(C(=O)N[C@@H](C)C(=O)N2CC[N+](C)(Cc3ccccc3)CC2)c(=O)n1-c1cccc(C(F)(F)F)c1 [Example 49, 1-Benzyl-4-((S)-2-{[5-[2-(4-cyano-phenyl)-2H-pyrazol-3-yl]-4-methyl-2-oxo-3-(3-trifluoromethyl-phenyl)-2,3-dihydro-imidazole-1-carbonyl]-amino}-propionyl)-1-methyl-piperazin-1-ium bromide]
> 9.00 | CC[C@H](NC(=O)n1c(-c2ccnn2-c2ccc(C#N)cc2)c(C)n(-c2cccc(C(F)(F)F)c2)c1=O)c1ncc(C[N+](C)(C)C)o1 [Example 74, [2-((S)-1-{[5-[2-(4-Cyano-phenyl)-2H-pyrazol-3-yl]-4-methyl-2-oxo-3-(3-trifluoromethyl-phenyl)-2,3-dihydro-imidazole-1-carbonyl]-amino}-propyl)-oxazol-5-ylmethyl]-trimethyl-ammonium benzene sulfonate]
> 9.00 | Cc1c(-c2ccnn2-c2ccc(C#N)cc2)n(C(=O)N[C@@H](C)c2ccc(CN(C)C)cc2)c(=O)n1-c1cccc(C(F)(F)F)c1 [Example 14, 5-[2-(4-Cyano-phenyl)-2H-pyrazol-3-yl]-4-methyl-2-oxo-3-(3-trifluoromethyl-phenyl)-2,3-dihydro-imidazole-1-carboxylic acid [(S)-1-(4-dimethylaminomethyl-phenyl)-ethyl]-amide]
> 9.00 | Cc1c(-c2ccnn2-c2ccc(C#N)cc2)n(C(=O)N[C@H]2CC[C@H](NC(=O)CN(C)C)CC2)c(=O)n1-c1cccc(C(F)(F)F)c1 [Example 26, 5-[2-(4-Cyano-phenyl)-2H-pyrazol-3-yl]-4-methyl-2-oxo-3-(3-trifluoromethyl-phenyl)-2,3-dihydro-imidazole-1-carboxylic acid [trans-4-(2-dimethylamino-acetylamino)-cyclohexyl]-amide]
> 9.00 | Cc1c(-c2ccnn2-c2ccc(C#N)cc2)n(C(=O)N[C@H]2C[C@H](C[N+](C)(C)C)C2)c(=O)n1-c1cccc(C(F)(F)F)c1 [Example 68, (Trans-3-{[5-[2-(4-cyano-phenyl)-2H-pyrazol-3-yl]-4-methyl-2-oxo-3-(3-trifluoromethyl-phenyl)-2,3-dihydro-imidazole-1-carbonyl]-amino}-cyclobutylmethyl)-trimethyl-ammonium benzene sulfonate]
> 9.00 | Cc1c(-c2ccnn2-c2ccc(C#N)cc2)n(C(=O)N[C@H](c2ncc(CN(C)C)o2)C(C)C)c(=O)n1-c1cccc(C(F)(F)F)c1 [Example 21, 5-[2-(4-Cyano-phenyl)-2H-pyrazol-3-yl]-4-methyl-2-oxo-3-(3-trifluoromethyl-phenyl)-2,3-dihydro-imidazole-1-carboxylic acid [(S)-1-(5-dimethylaminomethyl-oxazol-2-yl)-2-methyl-propyl]-amide]
> 9.00 | Cc1c(-c2ccnn2-c2ccc(C#N)cc2)n(C(=O)NC2CCN(C(=O)C[N+](C)(C)C)CC2)c(=O)n1-c1cccc(C(F)(F)F)c1 [Example 61, [2-(4-{[5-[2-(4-Cyano-phenyl)-2H-pyrazol-3-yl]-4-methyl-2-oxo-3-(3-trifluoromethyl-phenyl)-2,3-dihydro-imidazole-1-carbonyl]-amino}-piperidin-1-yl)-2-oxo-ethyl]-trimethyl-ammonium benzene sulfonate]

Reference: patent US10023558B2, “Compounds” (CHIESI FARMACEUTICI S.P.A., priority 2016, dated 2018)
